Results reported in patent US5476782A, “DNA encoding a human 5-HT1E receptor and uses thereof” (Synaptic Pharmaceutical Corporation, priority 1995, dated 1995).
Like-named read-outs stand apart in the source and are kept apart here.

What was measured:
[1] = target: T1, human 5-HT1E receptor (Homo sapiens, UniProt P28566); assay: [3H]5-HT displacement binding, membranes of Ltk- cells transfected with cloned 5-HT1E receptor; design: The entire coding region of clone hp75d was cloned into the eukaryotic expression vector pcEXV-3; expressed in transfected cells; host or cells: Ltk- mouse fibroblast cells (line 5-HT1E-7, ATCC CRL 10913, plasmid pcEXV-hp75d); conditions: for affinity (in words): displacement of [3H]5-HT specific binding; for decrease of affinity relative to serotonin: substitution or removal of the 5-hydroxy group
T1 sequence (P28566 whole entry): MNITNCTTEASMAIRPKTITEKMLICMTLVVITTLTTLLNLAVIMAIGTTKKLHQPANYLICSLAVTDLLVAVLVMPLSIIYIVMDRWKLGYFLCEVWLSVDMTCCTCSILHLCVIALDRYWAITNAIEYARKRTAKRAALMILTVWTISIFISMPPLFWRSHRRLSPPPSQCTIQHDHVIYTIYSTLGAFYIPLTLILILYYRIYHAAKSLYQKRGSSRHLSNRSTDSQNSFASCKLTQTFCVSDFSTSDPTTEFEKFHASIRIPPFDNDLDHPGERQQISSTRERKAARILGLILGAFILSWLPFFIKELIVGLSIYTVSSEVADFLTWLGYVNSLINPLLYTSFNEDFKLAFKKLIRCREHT
Method: Membranes were prepared from transfected Ltk^- cells which were grown to 100% confluency. The cells were washed twice with phosphate-buffered saline, scraped from the culture dishes into 5 ml of ice-cold phosphate-buffered saline, and centrifuged at 200×g for 5 min at 4° C. The pellet was resuspended in 2.5 ml of ice-cold Tris buffer (20 mM Tris -HCl, pH 7.4 at 23° C., 5 mM EDTA) and homogenized by a Wheaton tissue grinder. The lysate was subsequently centrifuged at 200×g for 5 min at 4° C. to pellet large fragments which were discarded. The supernatant was collected and centrifuged at 40,000× g for 20 min at 4° C. The pellet resulting from this centrifugation was washed once in ice-cold Tris buffer and finally resuspended in a final buffer containing 50 mM Tris-HCl and 0.5 mM EDTA, pH 7.4 at 23° C. Membrane preparations were kept on ice and utilized within two hours for the radioligand binding assays.
The binding profile of drugs in competition experiments was accomplished using 10-12 concentrations of compound. Incubation times were 30 min for both saturation and displacement studies based upon initial investigations which determined equilibrium binding conditions. […] Binding was initiated by the addition of 50 μl membrane homogenates (10-20 μg). The reaction was terminated by rapid filtration through presoaked (0.5% polyethyleneimine) filters using 48R Cell Brandel Harvester (Gaithersburg, Md.). Subsequently, filters were washed for 5 seconds with ice cold buffer (50 mM Tris HCL, pH 7.4 at 4° C.), dried and placed into vials containing 2.5 ml of Readi-Safe (Beckman, Fullerton, Calif.) and radioactivity was measured using a Beckman LS 5000TA liquid scintillation counter. […] Binding data was analyzed by computer-assisted nonlinear regression analysis (Accufit and Accucomp, Lundon Software, Chagrin Falls, Ohio). […] All experiments were performed in triplicate.

[2] = tested on: 5-HT1E binding site; conditions: native site, human cortical tissue; cited from earlier work
[3] = target: T1, human 5-HT1E receptor; conditions: forskolin-stimulated cAMP
Method: Transfected Y1 cells (expression level=688 fmol/mg of protein) were incubated in DMEM, 5 mM theophylline, 10 mM Hepes (4-[2-Hydroxyethyl]-1-piperazineethanesulfonic acid), 10 μM pargyline, for 20 minutes at 37° C., 5% CO2. […] Subsequently, the cells were incubated for an additional 10 minutes at 37° C., 5% CO2. The media was aspirated and the reaction terminated by the addition of 100 mM HCl. The plates were stored at 4° C. for 15 minutes and centrifuged for 5 minutes (500×g at 4° C.) to pellet cellular debris. Aliquots of the supernatant fraction were then stored at -20° C. prior to assessment of cAMP formation by radioimmunoassay (cAMP Radioimmunoassay kit, Advanced Magnetics, Cambridge, Mass.).

[4] = target: human 5-HT1E receptor; assay: Inhibition of [3H]5-HT specific binding by Gpp(NH)p (G-protein coupling); conditions: inhibition of specific binding of [3H]5-HT
[5] = displacement of 4.5-5.5 nM [3H]5-HT, 37° C., 30 min, Table 1, read-out: Ki

Row | Structure (SMILES) | Ki [1, 5] [nM] | affinity (in words) [1] | also measured
1 | c1ccc2c(N3CCNCC3)cccc2c1 [1-Napthylpiperazine] | 207 ± 69 | – | Ki ([1]; read-out: Ki values): 207 nM
2 | Cc1[nH]c2ccc(O)cc2c1CCN [2-Methyl-5-HT] | 817 ± 203 | – | –
3 | NCCc1c[nH]c2ccc(C(N)=O)cc12 [5-CT, 5-carboxyamidotryptamine] | 7880 ± 284 | low affinity | affinity (in words) [2]: low affinity; decrease of affinity relative to serotonin [1]: 300 fold
4 | NCCc1c[nH]c2ccc(O)cc12 [5-HT, 5-hydroxytryptamine] | – | highest affinity | maximum inhibition of cAMP production [3]: 32%
5 | COc1ccc2[nH]cc(CCN)c2c1 [5-Methoxytryptamine] | 3150 ± 1040 | – | decrease of affinity relative to serotonin [1]: 300 fold
6 | CCCN(CCC)C1CCc2cccc(O)c2C1 (centres unmarked) [8-OH-DPAT] | 3330 ± 310 | very poor affinity | –
7 | COc1cc(CC(C)N)c(OC)cc1I (centres unmarked) [DOI] | 2970 ± 592 | very poor affinity | –
8 | CCCN(CCC)CCc1c[nH]c2ccc(C(N)=O)cc12 [DP-5-CT] | – | – | Ki [1]: > 10000 nM
9 | C[C@@H](CO)NC(=O)[C@@H]1C=C2c3cccc4[nH]cc(c34)C[C@H]2N(C)C1 [Ergonovine] | – | – | Ki [1]: 87.7 ± 7.6 nM
10 | CN1C[C@H](C(=O)N[C@]2(C)O[C@@]3(O)[C@@H]4CCCN4C(=O)[C@H](Cc4ccccc4)N3C2=O)C=C2c3cccc4[nH]cc(c34)C[C@H]21 [Ergotamine] | 599 ± 39 | – | affinity (in words) [2]: low affinity
11 | Nc1nc2c(ncn2[C@@H]2O[C@H](COP(=O)(O)OP(=O)(O)NP(=O)(O)O)[C@@H](O)[C@H]2O)c(=O)[nH]1 [Gpp(NH)p] | – | – | IC50 [4]: 1880 ± 556 nM; Imax [4]: 26.4±5.6%
12 | O=C(c1ccc(F)cc1)C1CCN(CCn2c(=O)[nH]c3ccccc3c2=O)CC1 [Ketanserin] | – | very poor affinity | –
13 | Nc1ccc(CCN2CCN(c3cccc(C(F)(F)F)c3)CC2)cc1 [LY-165163 (PAPP)] | – | – | Ki [1]: > 10000 nM
14 | CN1C[C@H](CO)C=C2c3cccc4[nH]cc(c34)C[C@H]21 [Lysergol] | 42.8 ± 5.3 | – | –
15 | CSc1ccc2c(c1)C(N1CCN(C)CC1)Cc1ccccc1S2 (centres unmarked) [Methiothepin] | 194 ± 4 | – | Ki ([1]; read-out: Ki values): 194 nM
16 | CC[C@@H](CO)NC(=O)[C@@H]1C=C2c3cccc4[nH]cc(c34)C[C@H]2N(C)C1 [Methylergonovine] | 89.4 ± 4.2 | – | –
17 | CC[C@@H](CO)NC(=O)[C@@H]1C=C2c3cccc4c3c(cn4C)C[C@H]2N(C)C1 [Methysergide] | 228 ± 16 | – | –
18 | Cc1cc(C(C)(C)C)c(O)c(C)c1CC1=NCCN1 [Oxymetazoline] | 419 ± 49 | – | –
19 | CC(C)NCC(O)COc1cccc2[nH]ccc12 (centres unmarked) [Pindolol] | – | very poor affinity | –
20 | COC(=O)[C@H]1[C@H]2C[C@H]3c4[nH]c5ccccc5c4CCN3C[C@H]2CC[C@@H]1O [Rauwolscine] | – | – | Ki [1]: 3430 ± 102 nM
21 | O=C(CCCN1CCC2(CC1)C(=O)NCN2c1ccccc1)c1ccc(F)cc1 [Spiperone] | 5050 ± 689 | very poor affinity | –
22 | FC(F)(F)c1cccc(N2CCNCC2)c1 [TFMPP] | 6290 ± 259 | – | –
23 | NCCc1c[nH]c2ccccc12 [Tryptamine] | 2560 ± 827 | – | decrease of affinity relative to serotonin [1]: 300 fold
24 | COC(=O)[C@@H]1[C@H]2C[C@H]3c4[nH]c5ccccc5c4CCN3C[C@@H]2CC[C@@H]1O [Yohimbine] | 1270 ± 233 | – | –
25 | COc1cc(N)c(Cl)cc1C(=O)NC1CN2CCC1CC2 (centres unmarked) [Zacopride] | – | very poor affinity | –
